According to publication PMC5951806, “Rapid labelling and covalent inhibition of intracellular native proteins using ligand-directed N-acyl-N-alkyl sulfonamide” (Nature Communications, 2018):

Legend:
Assay in all cases: TMT LC-MSMS of 11-labelled proteins
Format in all cases: cell-based
[1] = biological target: ATP synthase subunit beta, mitochondrial (ATP5B) (Homo sapiens, UniProt P06576)
Prohibitin-2 (PHB2) = Prohibitin-2 (PHB2) (Homo sapiens, UniProt Q99623); conditions: SKBR3 cells; for Abundance Ratio: (11) / (DMSO): 11 0.5 µM 3 h vs DMSO; for Abundance Ratio: (11) / (11 with PU-H71): 11 0.5 µM 3 h vs with PU-H71 10 µM
Sequence of Prohibitin-2 (PHB2) (Q99623 whole entry): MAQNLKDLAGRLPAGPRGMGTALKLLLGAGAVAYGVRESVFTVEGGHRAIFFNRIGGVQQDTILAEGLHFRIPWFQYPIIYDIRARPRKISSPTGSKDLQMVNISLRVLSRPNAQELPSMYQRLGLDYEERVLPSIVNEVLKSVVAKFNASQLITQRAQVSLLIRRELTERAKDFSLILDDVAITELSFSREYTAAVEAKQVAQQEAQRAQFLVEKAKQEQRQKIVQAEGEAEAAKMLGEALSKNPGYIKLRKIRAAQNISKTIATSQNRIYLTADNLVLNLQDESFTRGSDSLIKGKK
Sequence of Prohibitin-2 (PHB2) (P35232 whole entry partner): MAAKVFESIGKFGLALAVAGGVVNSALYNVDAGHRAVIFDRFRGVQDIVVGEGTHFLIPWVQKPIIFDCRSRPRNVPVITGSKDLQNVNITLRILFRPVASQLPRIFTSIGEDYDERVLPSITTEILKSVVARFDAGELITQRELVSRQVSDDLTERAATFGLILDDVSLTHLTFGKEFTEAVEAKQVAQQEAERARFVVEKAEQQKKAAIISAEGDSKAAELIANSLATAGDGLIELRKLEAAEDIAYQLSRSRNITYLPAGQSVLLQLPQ

[2] = biological target: elongation factor Tu, mitochondrial (TUFM) (Homo sapiens, UniProt P49411)
[3] = biological target: T1, Folate transporter 1 (SLC19A1) (Homo sapiens, UniProt P41440)
T1 sequence (P41440 1-591): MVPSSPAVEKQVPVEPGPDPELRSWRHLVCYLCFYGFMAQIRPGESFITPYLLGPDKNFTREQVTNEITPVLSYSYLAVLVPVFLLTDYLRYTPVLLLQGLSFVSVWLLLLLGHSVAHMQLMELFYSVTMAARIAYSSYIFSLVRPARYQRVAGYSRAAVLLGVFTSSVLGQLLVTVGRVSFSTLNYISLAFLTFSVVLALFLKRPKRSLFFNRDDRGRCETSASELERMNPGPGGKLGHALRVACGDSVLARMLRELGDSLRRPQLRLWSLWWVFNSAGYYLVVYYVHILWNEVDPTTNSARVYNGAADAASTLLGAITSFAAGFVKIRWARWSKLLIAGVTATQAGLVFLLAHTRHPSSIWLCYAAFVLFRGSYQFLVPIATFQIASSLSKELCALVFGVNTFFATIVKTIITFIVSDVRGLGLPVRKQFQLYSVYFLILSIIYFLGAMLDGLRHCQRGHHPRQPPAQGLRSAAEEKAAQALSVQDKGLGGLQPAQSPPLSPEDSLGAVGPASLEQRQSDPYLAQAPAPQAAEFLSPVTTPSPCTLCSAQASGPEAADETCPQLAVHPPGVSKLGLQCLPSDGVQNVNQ

[4] = sheet Merged, SKBR3 cells, 11 0.5 µM 3 h vs DMSO
[5] = sheet Merged, SKBR3 cells, 11 0.5 µM 3 h vs with PU-H71 10 µM

`CC(=O)Oc1ccc2c(c1)Oc1cc(OC(C)=O)ccc1C21OC(=O)c2cc(C(=O)NCCOCCOCCNC(=O)CCCC(=O)N(CC#N)S(=O)(=O)c3ccc(C(=O)NCCCn4c(Sc5cc6c(cc5I)OCO6)nc5c(N)ncnc54)cc3)ccc21` [compound 11] was tested, and the “Abundance Ratio: (11) / (11 with PU-H71)” value ([1]; sheet Exp2, ATP5B) was 0.866, the “Abundance Ratio: (11) / (DMSO)” value ([1]; sheet Exp2, ATP5B) was 1.928 and the “Abundances (Grouped): 11” value ([1]; sheet Exp2, ATP5B) was 141.5. The “Abundances (Grouped): 11 with PU-H71” value ([1]; sheet Exp2, ATP5B, with PU-H71) was 163.4, the “Abundance Ratio: (11) / (DMSO)” value [1, 4] was 1.928 and the “Abundance Ratio: (11) / (11 with PU-H71)” value [1, 5] was 0.866. The “Abundance Ratio: (11) / (DMSO)” value (Prohibitin-2 (PHB2); sheet Exp1) was 1.815, the “Abundance Ratio: (11) / (11 with PU-H71)” value (Prohibitin-2 (PHB2); sheet Exp1) was 0.795 and the “Abundance Ratio: (11) / (DMSO)” value (Prohibitin-2 (PHB2); sheet Merged) was 1.815. For the same compound, the “Abundance Ratio: (11) / (11 with PU-H71)” value (Prohibitin-2 (PHB2); sheet Merged) was 0.795, the “Abundance Ratio: (11) / (11 with PU-H71)” value ([2]; sheet Exp2, TUFM) was 1.006 and the “Abundance Ratio: (11) / (DMSO)” value ([2]; sheet Exp2, TUFM) was 2.039. For the same compound, the “Abundances (Grouped): 11” value ([2]; sheet Exp2, TUFM) was 67.3, the “Abundances (Grouped): 11 with PU-H71” value ([2]; sheet Exp2, TUFM, with PU-H71) was 66.9 and the “Abundance Ratio: (11) / (DMSO)” value [2, 4] was 2.024. For the same compound, the “Abundance Ratio: (11) / (11 with PU-H71)” value [2, 5] was 0.818, the “Abundance Ratio: (11) / (11 with PU-H71)” value ([3]; Exp3, SLC19A1) was 0.875 and the “Abundance Ratio: (11) / (DMSO)” value ([3]; Exp3, SLC19A1) was 5.164. The “Abundances (Grouped): 11” value ([3]; Exp3, SLC19A1) was 56.8, the “Abundances (Grouped): 11 with PU-H71” value ([3]; Exp3, SLC19A1) was 64.9 and the “Abundance Ratio: (11) / (11 with PU-H71)” value ([3]; sheet Exp2, SLC19A1) was 1.054. The “Abundance Ratio: (11) / (DMSO)” value ([3]; sheet Exp2, SLC19A1) was 3.79, the “Abundances (Grouped): 11” value ([3]; sheet Exp2, SLC19A1) was 111.8 and the “Abundances (Grouped): 11 with PU-H71” value ([3]; sheet Exp2, SLC19A1) was 106.1. The “Abundance Ratio: (11) / (DMSO)” value [3, 4] was 4.595 and the “Abundance Ratio: (11) / (11 with PU-H71)” value [3, 5] was 0.985.
